BigSolDB 2.1

Row | solubility (mole fraction) (in ethanol, 288.15 K) | solubility (mole fraction) (in ethanol, 293.15 K) | solubility (mole fraction) (in ethanol, 298.15 K) | solubility (mole fraction) (in ethanol, 303.15 K) | solubility (mole fraction) (in ethanol, 308.15 K) | solubility (mole fraction) (in water, 288.15 K) | solubility (mole fraction) (in water, 293.15 K) | solubility (mole fraction) (in water, 298.15 K) | solubility (mole fraction) (in water, 303.15 K) | solubility (mole fraction) (in water, 308.15 K) | SMILES
1 | 0.000142 | 0.000178 | 0.000209 | 0.000246 | 0.000284 | 0.00116 | 0.00119 | 0.00122 | 0.00125 | 0.00128 | N[C@@H](Cc1c[nH]c2ccccc12)C(=O)O
2 | 1.6e-05 | 2e-05 | 2.8e-05 | 3.1e-05 | 3.9e-05 | 0.00379 | 0.00418 | 0.0046 | 0.00515 | 0.0057 | N[C@@H](Cc1cnc[nH]1)C(=O)O
